Literature values as cited in patent US20050042280A1, “Aqueous based pharmaceutical formulations of water-soluble prodrugs of propofol” (priority 2001, published 2005).

Conditions: anesthetic induction doses, Bryson et al., Drugs 50 (1995) at 520

CC(C)c1cccc(C(C)C)c1O [propofol, 2,6-diisopropylphenol]
patients with respiratory consequences, including a reduction in tidal volume and apnea: up to 83%
